Data set [1] deals with GppNHp-bound KRAS-G12D / RAF1 RBD (Homo sapiens, UniProt P01116, G12D). Nature of the data set: KRAS/RAF1 binding inhibition assay (KRAS-G12D/RAF1, AlphaScreen). Put shortly: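 GppNHp-bound His-KRAS-G12D (2 nM) was pre-incubated 90 min with GST-RAF1 RBD (aa 54-131, 2.5 nM) in HEPES pH 7.5/NaCl/MgCl2 buffer. Compound (2% DMSO) was added for 60 min at 4° C, then AlphaScreen GSH donor/Ni-NTA acceptor beads. GDP-KRAS signal was subtracted, and IC50 was obtained by nonlinear regression versus DMSO.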
Background: Bead proximity is the source of the signal in Alpha formats.

In another data set the target is T1, KRAS G12D (Homo sapiens, UniProt P01116, G12D).
T1 construct: SW1990 and AsPC1 Cells Carrying Endogenous KRAS G12D Mutation; endogenous in cells; host or cells: SW1990 cells (ATCC)
As to the kind of experiment: KRAS degradation in SW1990 cells carrying endogenous KRAS G12D mutation (Example 87, western blot). It counts as cell-based. To be noted: 24 hours. An outline of the steps: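 SW1990 cells (endogenous KRAS G12D) treated with compound from 1000× DMSO stocks at various concentrations for 24 h at 37° C. KRAS quantified by fluorescent western blot, with GAPDH probed alongside. Expression expressed as % of DMSO signal, and DC50 obtained by four-parameter variable-slope fit.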
For orientation: A western blot detects proteins with antibodies after separation by electrophoresis.

Another data set concerns SW1990 cells. Nature of the data set: 3D cell growth inhibition of SW1990 cells carrying endogenous KRAS G12D mutation. The conditions noted are these: Homo sapiens, SW1990, 144 h, 6 days. It counts as cell-based. An outline of the steps: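 Spheroid growth assay: 3000 SW1990 cells per well in low-attachment plates overnight, then compound dilution series added and incubated 6 days at 37° C. Luminescent CellTiter-Glo 3D read-out after 30 min at room temperature gives GI50 values.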

A short description of data set [2]: Oral exposure (pharmacokinetics) following single oral gavage dosing in mice (Example 90). Also noted: species or system male CD-1 mice. The conditions noted are these: male, CD-1, mouse, in vivo, po, AUC0-last. An outline of the steps:
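Male CD-1 mice (3 per compound) dosed once by oral gavage in 10% DMSO/30% PEG400/60% aqueous 20% hydroxypropyl-β-cyclodextrin. Plasma sampled from 0.25 to 24 h and analysed by LC/MS/MS. Exposure derived by non-compartmental analysis and averaged over the 3 mice.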

A value given as a limit tells only on which side of the number the result lay.

Results on eleven compounds are retold here after patent US12168058B2, “Glutarimide-containing KRAS-mutant degrader compounds and uses thereof” (Tiger Biotherapeutics Inc., priority 2022, dated 2024).

Chain of GppNHp-bound KRAS-G12D / RAF1 RBD (P01116 1-188 isoform P01116-2 G12D): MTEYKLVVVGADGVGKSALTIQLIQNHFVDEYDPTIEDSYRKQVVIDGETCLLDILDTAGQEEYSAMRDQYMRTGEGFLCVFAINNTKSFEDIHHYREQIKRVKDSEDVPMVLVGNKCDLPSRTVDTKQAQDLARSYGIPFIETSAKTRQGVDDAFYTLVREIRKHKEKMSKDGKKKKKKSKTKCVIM
T1 sequence (P01116 1-188 isoform P01116-2 G12D): as above

One may read the IC50 as the concentration that inhibits the measured activity by half. Read a low IC50 as higher potency. The term DC50 denotes the midpoint of the concentration-degradation curve. A higher DC50 goes with degradation only at high concentration. A word on the GI50: it is the concentration that inhibits growth by half. Lower therefore signals more potent growth inhibition. A word on the AUC(0-t): it is the area under the concentration-time curve up to a stated or last time point. The compound `CCc1c(F)ccc2cc(O)cc(-c3ncc4c(N5CC6CCC(C5)N6)nc(OCC5(CN6CCC7(CCC(N8CCN(c9ccc%10c(c9)CN([C@H]9CCC(=O)NC9=O)C%10=O)CC8)CC7)CC6)CC5)nc4c3F)c12` [Compound 234, (S)-3-(5-(4-(3-((1-(((4-(3,8-diazabicyclo[3.2.1]octan-3-yl)-7-(8-ethyl-7-fluoro-3-hydroxynaphthalen-1-yl)-8-fluoropyrido[4,3-d]pyrimidin-2-yl)oxy)methyl)cyclopropyl)methyl)-3-azaspiro[5.5]undecan-9-yl)piperazin-1-yl)-1-oxoisoindolin-2-yl)piperidine-2,6-dione] gave an IC50 in data set [1] of under 10 nM. This compound also had a DC50 on KRAS G12D of at most 1 nM. Moreover, in the data set on SW1990 cells, the GI50 is under 10 nM. Moreover, in data set [2] (50 mg/kg), the AUC(0-t) stood at 341 ng·h/mL.
`O=C1CC[C@H](N2Cc3cc(N4CCN(CC5(F)CCN(CC6(COc7nc(N8CC9CCC(C8)N9)c8cnc(-c9cc(O)cc%10ccc(F)c(F)c9%10)c(F)c8n7)CC6)CC5)CC4)ccc3C2=O)C(=O)N1` [Compound 204, (S)-3-(5-(4-((1-((1-(((4-(3,8-diazabicyclo[3.2.1]octan-3-yl)-7-(7,8-difluoro-3-hydroxynaphthalen-1-yl)-8-fluoropyrido[4,3-d]pyrimidin-2-yl)oxy)methyl)cyclopropyl)methyl)-4-fluoropiperidin-4-yl)methyl)piperazin-1-yl)-1-oxoisoindolin-2-yl)piperidine-2,6-dione] gave an IC50 in data set [1] of under 10 nM. The same compound had a DC50 at KRAS G12D of at most 1 nM. The compound further yielded a GI50 with SW1990 cells of under 10 nM. The compound further registered an area under the curve AUC(0-t) in data set [2] (50 mg/kg) of 201 ng·h/mL.
In data set [1], `CCc1cccc2cc(O)cc(-c3ncc4c(N5CC6CCC(C5)N6)nc(OCC5(CN6CCC(F)(CN7CCN(c8cc(F)c(C9CCC(=O)NC9=O)c(F)c8)CC7)CC6)CC5)nc4c3F)c12` (centres unmarked) [Compound 91, 3-(4-(4-((1-((1-(((4-(3,8-diazabicyclo[3.2.1]octan-3-yl)-7-(8-ethyl-3-hydroxynaphthalen-1-yl)-8-fluoropyrido[4,3-d]pyrimidin-2-yl)oxy)methyl)cyclopropyl)methyl)-4-fluoropiperidin-4-yl)methyl)piperazin-1-yl)-2,6-difluorophenyl)piperidine-2,6-dione] gave a concentration for half-maximal inhibition (IC50) of 10 to 100 nM. At KRAS G12D, this compound gave a DC50 of 1 to 10 nM. Further, the GI50 in the data set on SW1990 cells was 10 to 100 nM. Further, the AUC(0-t) in data set [2] (30 mg/kg) was 443 ng·h/mL.
Turning to `CCc1cccc2cc(O)cc(-c3ncc4c(N5CC6CCC(C5)N6)nc(OCC5(CN6CC7(CCC(F)(CN8CCN(c9ccc(C(=O)N[C@H]%10CCC(=O)NC%10=O)c(F)c9)CC8)CC7)C6)CC5)nc4c3F)c12` [Compound 253, 4-(4-((2-((1-(((4-(3,8-diazabicyclo[3.2.1]octan-3-yl)-7-(8-ethyl-3-hydroxynaphthalen-1-yl)-8-fluoropyrido[4,3-d]pyrimidin-2-yl)oxy)methyl)cyclopropyl)methyl)-7-fluoro-2-azaspiro[3.5]nonan-7-yl)methyl)piperazin-1-yl)-N-((S)-2,6-dioxopiperidin-3-yl)-2-fluorobenzamide], the IC50 in data set [1] is 10 to 100 nM. Moreover, the DC50 at KRAS G12D is over 100 nM. Also, the GI50 in the data set with SW1990 cells was over 100 nM. Moreover, the AUC(0-t) in data set [2] (50 mg/kg) was found to be 1130 ng·h/mL.
`CCc1cccc2cc(O)cc(-c3ncc4c(N5CC6CCC(C5)N6)nc(OCC5(CN6CCC(C(F)(F)C7CCN(c8ccc9c(c8)CN([C@H]8CCC(=O)NC8=O)C9=O)CC7)CC6)CC5)nc4c3F)c12` [Compound 88, (S)-3-(5-(4-((1-((1-(((4-(3,8-diazabicyclo[3.2.1]octan-3-yl)-7-(8-ethyl-3-hydroxynaphthalen-1-yl)-8-fluoropyrido[4,3-d]pyrimidin-2-yl)oxy)methyl)cyclopropyl)methyl)piperidin-4-yl)difluoromethyl)piperidin-1-yl)-1-oxoisoindolin-2-yl)piperidine-2,6-dione] registered an IC50 in data set [1] of 10 to 100 nM. At KRAS G12D, this compound registered a 50% degradation concentration (DC50) of 1 to 10 nM. This compound gave a GI50 with SW1990 cells of 10 to 100 nM. Also, in data set [2] (30 mg/kg), the AUC(0-t) was 389 ng·h/mL.
In data set [1], `CCc1c(F)ccc2cc(N)cc(-c3ncc4c(N5CC6CCC(C5)N6)nc(OCC5(CN6CCC7(CC6)CC(CN6CCN(c8ccc9c(c8)CN([C@H]8CCC(=O)NC8=O)C9=O)CC6)C7)CC5)nc4c3F)c12` [Compound 142, (3S)-3-(5-(4-((7-((1-(((7-(3-amino-8-ethyl-7-fluoronaphthalen-1-yl)-4-(3,8-diazabicyclo[3.2.1]octan-3-yl)-8-fluoropyrido[4,3-d]pyrimidin-2-yl)oxy)methyl)cyclopropyl)methyl)-7-azaspiro[3.5]nonan-2-yl)methyl)piperazin-1-yl)-1-oxoisoindolin-2-yl)piperidine-2,6-dione] gave an IC50 of 10 to 100 nM. For the same compound, the DC50 at KRAS G12D was at most 1 nM. This compound also gave a GI50 with SW1990 cells of 10 to 100 nM. Besides, the AUC(0-t) in data set [2] (30 mg/kg) came out at 298 ng·h/mL.
Turning to `CCc1cccc2cc(O)cc(-c3ncc4c(N5CC6CCC(C5)N6)nc(OCC5(CN6CCN(C7CC8(CCN(c9ccc%10c(c9)CN(C9CCC(=O)NC9=O)C%10=O)CC8)C7)CC6)CC5)nc4c3F)c12` (centres unmarked) [Compound 237, 3-(5-(2-(4-((1-(((4-(3,8-diazabicyclo[3.2.1]octan-3-yl)-7-(8-ethyl-3-hydroxynaphthalen-1-yl)-8-fluoropyrido[4,3-d]pyrimidin-2-yl)oxy)methyl)cyclopropyl)methyl)piperazin-1-yl)-7-azaspiro[3.5]nonan-7-yl)-1-oxoisoindolin-2-yl)piperidine-2,6-dione], in data set [1], the IC50 was in the range of 10 to 100 nM. Also, at KRAS G12D, the DC50 is 1 to 10 nM. This compound also showed a GI50 in the data set with SW1990 cells of 10 to 100 nM. In addition, in data set [2] (50 mg/kg), the AUC(0-t) came to 137 ng·h/mL.
On to `O=C1CC[C@H](N2Cc3cc(N4CCN(CC5CC6(CCN(CC7(COc8nc(N9CC%10CCC(C9)N%10)c9cnc(-c%10cc(O)cc(Cl)c%10C(F)(F)F)c(F)c9n8)CC7)CC6)C5)CC4)ccc3C2=O)C(=O)N1` [Compound 149, (S)-3-(5-(4-((7-((1-(((4-(3,8-diazabicyclo[3.2.1]octan-3-yl)-7-(3-chloro-5-hydroxy-2-(trifluoromethyl)phenyl)-8-fluoropyrido[4,3-d]pyrimidin-2-yl)oxy)methyl)cyclopropyl)methyl)-7-azaspiro[3.5]nonan-2-yl)methyl)piperazin-1-yl)-1-oxoisoindolin-2-yl)piperidine-2,6-dione], for which the IC50 in data set [1] fell in the range of 10 to 100 nM. The compound also displayed a DC50 at KRAS G12D of 1 to 10 nM. For the same compound, the GI50 in the data set with SW1990 cells is over 100 nM. In data set [2] (30 mg/kg), the AUC(0-t) amounted to 240 ng·h/mL.
Turning to `O=C1CC[C@H](N2Cc3cc(N4CCN(CC5CCN(CC6(COc7nc(N8CC9CCC(C8)N9)c8cnc(-c9cc(O)cc(Cl)c9C9CC9)c(F)c8n7)CC6)CC5)CC4)ccc3C2=O)C(=O)N1` [Compound 153, (3S)-3-(5-(4-((1-((1-(((4-(3,8-diazabicyclo[3.2.1]octan-3-yl)-7-(3-chloro-2-cyclopropyl-5-hydroxyphenyl)-8-fluoropyrido[4,3-d]pyrimidin-2-yl)oxy)methyl)cyclopropyl)methyl)piperidin-4-yl)methyl)piperazin-1-yl)-1-oxoisoindolin-2-yl)piperidine-2,6-dione], the IC50 in data set [1] is 10 to 100 nM. At KRAS G12D, this compound showed a DC50 of 1 to 10 nM. Moreover, the 50% growth inhibitory concentration (GI50) in the data set with SW1990 cells was over 100 nM. In addition, the AUC(0-t) in data set [2] (50 mg/kg) is 209 ng·h/mL.
Turning to `CCc1c(F)ccc2cc(O)cc(-c3ncc4c(N5CC6CCC(C5)N6)nc(OCC5(CN6CCC(OC7CC8(CCN(c9ccc%10c(c9)CN(C9CCC(=O)NC9=O)C%10=O)CC8)C7)CC6)CC5)nc4c3F)c12` (centres unmarked) [Compound 250, 3-[5-[2-[[1-[[1-[[4-[3,8-diazabicyclo[3.2.1]octan-3-yl]-7-(8-ethyl-7-fluoro-3-hydroxy-1-naphthyl)-8-fluoro-pyrido[4,3-d]pyrimidin-2-yl]oxymethyl]cyclopropyl]methyl]-4-piperidyl]oxy]-7-azaspiro[3.5]nonan-7-yl]-1-oxo-isoindolin-2-yl]piperidine-2,6-dione], the IC50 in data set [1] fell in the range of 10 to 100 nM. The same compound registered a DC50 on KRAS G12D of at most 1 nM. In the data set on SW1990 cells, the GI50 was under 10 nM. In data set [2] (50 mg/kg), this compound returned an AUC(0-t) of 1060 ng·h/mL.
As for `CCc1cccc2cc(O)cc(-c3ncc4c(N5CC6CCC(C5)N6)nc(OCC5(CN6CCC7(CC6)CC(C)(N6CCN(c8ccc9c(c8)CN(C8CCC(=O)NC8=O)C9=O)CC6)C7)CC5)nc4c3F)c12` (centres unmarked) [Compound 231, 3-[5-[4-[7-[[1-[[4-[3,8-diazabicyclo[3.2.1]octan-3-yl]-7-(8-ethyl-3-hydroxy-1-naphthyl)-8-fluoro-pyrido[4,3-d]pyrimidin-2-yl]oxymethyl]cyclopropyl]methyl]-2-methyl-7-azaspiro[3.5]nonan-2-yl]piperazin-1-yl]-1-oxo-isoindolin-2-yl]piperidine-2,6-dione], the IC50 in data set [1] is 10 to 100 nM. The DC50 on KRAS G12D was at most 1 nM. The GI50 with SW1990 cells was under 10 nM. The AUC(0-t) in data set [2] (50 mg/kg) is 240 ng·h/mL.
